Experimental data: US8410178B2, “CIS 3,4-dihydroxy-2-(3-methylbutanoyl)-5-(3-methylbutyl)-4-(4-methylpentanoyl)cyclopent-2-en-1-derivatives, substantially enantiomerically pure compositions and methods” (KinDex Therapeutics, LLC, priority 2010, dated 2013)
Where two headings read alike, the source gives them in different places. Each block holds one molecule with its values, some of them ahead of it.

Legend:
[1] = molecular target: T1, GPR120 (Homo sapiens, UniProt Q5NUL3); experiment: GPR120 activity, intracellular calcium response in CHO-K1/GPR120/Gα15 cells; assay type: cell-based
T1 sequence (Q5NUL3 1-361): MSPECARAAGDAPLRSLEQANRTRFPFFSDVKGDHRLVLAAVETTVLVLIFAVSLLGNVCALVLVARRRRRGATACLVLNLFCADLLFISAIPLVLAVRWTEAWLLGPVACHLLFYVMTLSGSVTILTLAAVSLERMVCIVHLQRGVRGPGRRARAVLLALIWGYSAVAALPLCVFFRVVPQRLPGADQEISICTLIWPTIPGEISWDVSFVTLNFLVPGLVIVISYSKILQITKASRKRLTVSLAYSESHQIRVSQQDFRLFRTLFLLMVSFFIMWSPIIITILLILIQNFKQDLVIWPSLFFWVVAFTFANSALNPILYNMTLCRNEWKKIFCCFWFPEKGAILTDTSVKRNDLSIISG
Protocol: GPR120 activity was measured by intracellular calcium response. CHO-K1/GPR120/Gα15 cells were regularly passaged to maintain optimal cell health and cultured in Ham's F12 supplemented with 10% fetal bovine serum, 200 μg/mL zeocin, and 100 μg/mL hygromycin. Cells were seeded in a 384-well black-wall, clear-bottom plate at a density of 20,000 cell per well in 20 μL of growth medium 18 hours prior to the start of the experiment, and maintained at 37° C./5% CO2. Cells were loaded with calcium-4, and baseline fluorescence readings were obtained from 1 second to 20 seconds using a fluorescent imaging plate reader (FLIPR). At 20 seconds, (+)-KDT501 (5× final concentration) was added to the reading plate, and the fluorescence signal was monitored for 100 seconds (21 seconds to 120 seconds). α-linolenic acid (LA), eicosapentaenoic acid (EPA), and docosahexaenoic acid (DHA) were used as controls. Data acquisition and analysis was performed using ScreenWorks (version 3.1) and exported to Excel. The average fluorescence value for the first 20 seconds was calculated as the baseline reading. The relative fluorescent unit (ΔRFU) intensity values were calculated with the maximal fluorescent units (21 s to 120 s), subtracting the baseline reading. Data analysis wizard written by GenScript was used to analyze EC50. Dose response curves of antagonist were fitted using the GraphPad Prism 4 four parameter logistic equation Y=Bottom+(Top−Bottom)/(1+10^((LogIC50−X)*HillSlope)), where X is the logarithm of concentration and Y is response.

[2] = molecular target: T2, PPARγ (Homo sapiens, UniProt P37231); experiment: PPARγ luciferase reporter assay; assay type: cell-based; settings: reporter cells, 20 hours
T2 sequence (P37231 1-505): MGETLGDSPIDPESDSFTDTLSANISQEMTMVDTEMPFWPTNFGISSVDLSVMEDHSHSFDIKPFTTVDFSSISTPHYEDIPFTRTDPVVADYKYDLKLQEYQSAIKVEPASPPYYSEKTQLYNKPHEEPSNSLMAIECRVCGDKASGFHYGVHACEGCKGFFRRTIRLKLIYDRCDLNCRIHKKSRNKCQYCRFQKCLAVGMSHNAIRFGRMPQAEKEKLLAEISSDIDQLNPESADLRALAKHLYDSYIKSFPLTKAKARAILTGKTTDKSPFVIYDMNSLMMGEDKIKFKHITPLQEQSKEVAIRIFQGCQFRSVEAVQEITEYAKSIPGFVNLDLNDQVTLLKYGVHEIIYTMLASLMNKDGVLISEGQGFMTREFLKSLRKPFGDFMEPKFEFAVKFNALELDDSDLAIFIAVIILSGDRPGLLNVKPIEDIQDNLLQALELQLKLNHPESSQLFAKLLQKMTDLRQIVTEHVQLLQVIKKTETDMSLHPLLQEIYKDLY
Protocol: The functional effect of (+)-KDT501 on PPARα, PPARδ, and PPARγ activity was evaluated using a PPAR reporter assay (INDIGO Biosciences, PA). This assay utilizes non-human mammalian cells engineered to provide constitutive high level expression of PPARα, PPARδ, or PPARγ and containing a luciferase report gene specific to the appropriate PPAR. Following activation by agonist binding, PPAR induces expression of the luciferase reporter gene. Luciferase activity therefore provides a surrogate for measuring PPAR activity in agonist-treated cells.
Reporter cells were plated on a 96-well plate at 100 μL per well, and 100 μL of (+)-KDT501 at various final concentrations (25, 12.5, 6.25, 3.125, 1.56 and 0.78 μM) was added to each well. […] 0.1% DMSO was also used as a negative control for each assay. Plates are incubated for 20 hours in a humidified incubator at 37° C. and 5% CO2. After incubation, cell medium was discarded and the cells were treated with 100 μL of luciferase detection reagent for 15 minutes. Plates were analyzed using a luminometer (Victor2, Perkin Elmer). Average relative light unit (RLU) and standard deviation were analyzed using GraphPad Prism.
The PPAR activity assays were repeated as described above using both (+)-KDT501(12.5, 6.25, 3.125, 1.56, and 0.78 μM) and (−)-KDT501 (25, 12.5, 6.25, 3.125, 1.56, and 0.78 μM).

[3] = system: Zucker diabetic fatty (ZDF) rats; experiment: Glucose and triglyceride levels in a rat diabetes model; assay type: in vivo; settings: 200 mg/kg orally twice a day
Protocol: 64 six-week-old male Zucker diabetic fatty (ZDF) rats with glucose levels of 175-300 mg/dL were randomized and divided into eight dosing groups: 1) vehicle only (0.5% methylcellulose (w/v), 0.2% Tween 80 (w/v); negative control), 2) (+)-KDT501 25 mg/kg, 3) (+)-KDT501 50 mg/kg, 4) (+)-KDT501 100 mg/kg, 5) (+)-KDT501 200 mg/kg, 6) metformin 200 mg/kg (positive control), 7) metformin 200 mg/kg and (+)-KDT501 100 mg/kg, and 8) pioglitazone 30 mg/kg (positive control). Drugs were administered orally twice a day for 33 days.
Animals were weighed at randomization and once per week thereafter, with administration dosages calculated based on the most recent body weight measurements. Blood samples were collected by tail bleed three days prior to randomization, at randomization, and at days 15 and 29 after the start of treatment. These blood samples were used to perform whole blood glucose evaluations using a glucometer, as well as to measure blood triglyceride levels. Body composition was tested by qNMR on days 2 and 29 after the start of treatment. An oral glucose tolerance test (OGTT) was performed on days 31 and 32 after the start of treatment. Rats underwent an overnight fast prior to OGTT, and tail bleeds for glucose and insulin were performed pre-glucose bolus and at 15, 30, 60, 90, and 120 minutes post-glucose bolus. The glucose bolus was 2 g dextrose/kg of body weight. On day 33, a cardiac puncture was performed for PK analysis.

[4] = system: diet induced obese (DIO) mice; experiment: Glucose, insulin, HbA1C and fat mass in high fat diet-induced obesity (DIO) mouse model; assay type: in vivo; settings: 200 mg/kg orally twice a day
Protocol: 14 week-old male mice were randomized and divided into seven dosing groups with 16 animals in each group: 1) vehicle only (0.5% methylcellulose (w/v), 0.2% Tween 80 (w/v); negative control), 2) (+)-KDT501 25 mg/kg, 3) (+)-KDT501 50 mg/kg, 4) (+)-KDT501 100 mg/kg, 5) (+)-KDT501 200 mg/kg, 6) metformin 200 mg/kg (positive control), and 7) pioglitazone 30 mg/kg (positive control). Drugs were administered orally twice a day for 30 days.
Animals were weighed at randomization and once per week thereafter, with administration dosages calculated based on the most recent body weight measurements. The mice were maintained on a high fat diet (40% Kcal) (TD95217; prepared by Covance Laboratories, Greenfield, Ind.). Body composition was tested by qNMR on days −5 and 28 after the start of treatment. […]. An oral glucose tolerance test (OGTT) was performed on day 30 after the start of treatment. Mice underwent an overnight fast prior to OGTT, and tail bleeds for glucose and insulin were performed pre-glucose bolus and at 15, 30, 60, 90, and 120 minutes post-glucose bolus. The glucose bolus was 2 g dextrose/kg of body weight. OGTT results were evaluated by area under the curve (AUC) measurements and Dunnett's test.

[5] = CHO-K1/GPR120/Gα15 cells, calcium response, read-out: GPR120 agonistic activity EC50

EC50 [1, 5]: 35.3 µM
Compound: CC/C=C\C/C=C\C/C=C\C/C=C\C/C=C\C/C=C\CCC(=O)O [DHA, docosahexaenoic acid]

EC50 [1, 5]: 116 µM
Compound: CC/C=C\C/C=C\C/C=C\C/C=C\C/C=C\CCCC(=O)O [EPA, eicosapentaenoic acid]

PPARγ activity [2]: increased PPARγ activity
Compound: CCCc1nc2c(C)cc(-c3nc4ccccc4n3C)cc2n1Cc1ccc(-c2ccccc2C(=O)O)cc1 [Telmisartan, telmisartan, reference compound]

Compound: CN(C)C(=N)N=C(N)N [metformin, reference compound]
whole blood glucose levels [3]: slight increase | triglyceride levels ([3]; days 15 and 29): increase | HbA1C ([4]; day 29, versus vehicle-only): significant difference | blood glucose levels from the OGTT ([4]; day 30): significant decrease | insulin levels from the OGTT ([4]; day 30): significant decrease | fat mass ([4]; qNMR day 28): reduction in fat mass

Compound: CC/C=C\C/C=C\C/C=C\CCCCCCCC(=O)O [α-LA, α-linolenic acid]
EC50 [1]: 36.1 µM
